Laboratory results reported in patent publication US10570177B2, “P3 peptidylic inhibitors for treating CAG-repeat RNA toxicity in polyglutamine diseases” (The Chinese University of Hong Kong, priority 2017, dated 2020).
Where “and” joins values, the source holds several entries; their conditions need not be identical. Equal entries are not always repeated. Entries after “also recorded” stand apart in the source; their conditions may differ. Marks after values point to notes of the source that are not given here. Residues, ends and D or L forms follow the SMILES beside them. *: point of attachment. Palmitoyl = CCCCCCCCCCCCCCCC(=O)*

What was measured:
[1] = In vitro stability in rat plasma; type: in vitro ADME; settings: 37° C.
Protocol: (§1) Sprague-Dawley (SD) rats (male, 180-200 g) were supplied by the Laboratory Animal Services Centre at The Chinese University of Hong Kong. All animal studies were conducted under the approval of the Animal Ethics Committee of The Chinese University of Hong Kong, and were performed in accordance with relevant guidelines and regulations. Blank rat brain homogenate was prepared by ultrasonic probe homogenization (Micoson XL-2000, Misonix, Framingdale, N.Y., USA) of brains collected from the control rats. Blank rat plasma was prepared by centrifugation (8000 rcf for 3.5 min) of blood collected from control rats. […] The mixtures were incubated at 37° C. with 100 rpm in a water bath for 1 or 3 hr. The incubation was terminated by addition twice the volume of acetonitrile and centrifugation at 13000 rcf for 10 min. The supernatant was collected for LC/MS/MS analysis.

[2] = system: primary rat cortical neurons; assay: LDH cytotoxicity in primary rat cortical neurons; type: cell-based; settings: 0.01 nM to 1 μM, 72 hr
Protocol: A density of 5×10^5 of primary rat cortical neurons were seeded on culture dish and individually cultured in medium containing 0.01, 0.1, 1, 5, 10, 50, 100, 250, 500, 750, and 1000 nM of P3V8 peptide (transfected with DeliverX). The lactate dehydrogenase (LDH) cytotoxicity activity was measured 72 hr post-treatment. Fold change of LDH activity was normalized to untreated cells. Data are expressed as mean±S.E.M. for 3 independent experiments. NS indicates no significance.
The LDH cytotoxicity activity was measured 72 hr posttreatment. Fold change of LDH activity was normalized to untreated cells. Data are expressed as mean±S.E.M. for 3 independent experiments. NS indicates no significance.
Because of the aim to develop P3V8 into a potent inhibitor that targets RNA toxicity in degenerating cells within the nervous system, it was assessed whether P3V8 had deleterious effects on neuronal cells by determining lactate dehydrogenase release in the culturing medium of rat cortical neurons.

[3] = system: EGFPCAG78 RNA-expressing HEK293 cells; type: cell-based
Protocol: HEK293 cells were cultured at 37° C. with 5% CO2 in DMEM supplemented with 10% FBS and 1% penicillin-streptomycin. Primary rat cortical neurons were isolated and cultured as previously described^37. Transient transfection of HEK293 cells was performed using Lipofectamine 2000 (Life Technologies). P3V8 were delivered to HEK293 cells using the DeliverX (DX) Peptide Transfection Kit (Affymetrix) 4 hr after DNA transfection. At least two batches of independently synthesized peptides were used in the experiments.
HEK 293 cells were seeded on a 24-well plate at a density of 0.5×10^5, and pEGFPCAG78 DNA construct was used to transfect the cells. For P3V8 treatment, different concentrations of P3V8 as indicated in the figure were transfected by DeliverX transfectant 4 hr after DNA transfection. […] Seventy-two hours after treatment, LDH enzyme activity in the cell culture medium was measured as described before. Experimental groups were normalized to the untransfected control. After normalization, data were analyzed using the dose response-inhibition curve (nonlinear regression-variable slope) to determine the IC50 value (Prism6 software, GraphPad Software, Inc.). Each experiment was repeated at least 3 times.

[4] = In vitro stability in rat brain homogenate; type: in vitro ADME; settings: 37° C.
Protocol: as §1

HEK293 cells = assay: Cellular uptake studies in HEK293 cells (LC/MS); type: in vitro ADME; settings: 3 hr; for cellular uptake: 100 nM peptide
Protocol: HEK293 cells were seeded on a 6-well plate at a density of 6×10^5 and cultured overnight at 37° C. with 5% CO2 in DMEM supplemented with 10% FBS and 1% penicillin-streptomycin. Cells were then treated with 100, 500 or 1000 nM of respective peptide at 37° C. for 3 hr. After treatment, the cells were washed with ice-cold PBS and then lysed by 2% SDS solution. Aliquot (100 μl) of the cell lysate was added with 200 μl acetonitrile and centrifuged at 13000 rcf for 10 min to precipitate the proteins. The collected supernatant was subjected to LC/MS analysis. The protein concentration of the cell lysate was measured using a bicinchoninic acid protein assay kit following Sigma's protocol.

MJDCAG27 RNA = assay: Isothermal titration calorimetry binding assay, unexpanded MJDCAG27 RNA
Protocol: To test whether P3V8 specifically targets expanded CAG RNA, ITC experiments were performed using unexpanded CAG RNA (MJDCAG27 RNA), expanded CAG RNA (MJDCAG78 RNA), and expanded CAA/G RNA (MJDCAA/G78 RNA), respectively, to investigate whether the binding of P3V8 is RNA expansion-dependent and sequence-dependent (Table 6).
Experiments were carried out using a MicroCal iTC200 isothermal titration calorimeter (GE Healthcare) at 25° C. Data were analyzed using the Origin® scientific plotting software version 7 (Microcal Software Inc.). All RNAs and peptides were dissolved in binding buffer (20 mM MOPS, pH 7.0; 300 mM NaCl) and 0.7 mM of peptide was titrated into 0.5 μM of RNA for each experiment. The concentration of RNA was estimated with appropriate extinction coefficients at 260 nm on a Nanodrop 2000 (Thermo Scientific). A reference power of 8 μcal/s was used with an initial 0.5 μl of injection of peptide followed by 2 μl for all subsequent titrations points with a 60 sec initial equilibrium delay and 150 sec pause between injections. The samples were stirred at a speed of 1000 rpm throughout the experiment. The thermal titration data were fitted to the ‘one binding site model’ to determine the dissociation constant (KD). Each experiment was repeated at least 3 times with consistent results obtained.

[5] = 1000 ng/mL, incubation for 1 hr
[6] = 2000 ng/mL, incubation for 1 hr, 60 min
[7] = 2000 ng/mL, incubation for 3 hr
[8] = 2000 ng/mL, incubation for 1 hr

CCCCCCCCCCCCCCCC(=O)N[C@@H](CC(=O)O)C(=O)NCC(=O)N[C@@H](CCCCN)C(=O)N[C@@H](CO)C(=O)N[C@@H](CCCCN)C(=O)NCC(=O)N[C@H](C(=O)N[C@@H](C)C(=O)N[C@@H](Cc1ccc(O)cc1)C(=O)N[C@H](C(=O)N[C@@H](CCC(=O)O)C(=O)N[C@@H](Cc1ccccc1)C(=O)N[C@@H](CCCCN)C(N)=O)[C@@H](C)CC)[C@@H](C)CC [L1P3V8] (Palmitoyl-DGKSKGIAYIEFK-NH2)
Pecentage of remained ([1]; 500 ng/mL, incubation for 1 hr): 88.1 ± 4.9%
remaining at 1 h, 1000 ng/mL ([1]; male, Sprague-Dawley, rat, 1000 ng/mL, incubation for 1 hr, read-out: Pecentage of remained): 98.7 ± 3.9%
cytotoxicity (LDH release) [2]: no cytotoxic effects; also recorded: no cytotoxicity
IC50 ([3]; 72 hr, read-out: IC50 (inhibition of cell death, LDH)): ~0.1 µM
Pecentage of remained ([4]; 500 ng/mL, incubation for 1 hr): <20^# %
Pecentage of remained ([4]; 500 ng/mL, incubation for 3 hr): <20^# %
Pecentage of remained [4, 5]: 22.8 ± 1.2 %
Pecentage of remained ([4]; 1000 ng/mL, incubation for 3 hr): 15.8 ± 0.7%
Pecentage of remained [4, 6]: 45.0 ± 3.5 %
Pecentage of remained [4, 7]: ~21.2%
Pecentage of remained ([4]; 2000 ng/mL, incubation for 3 hr, 180 min): 21.2 ± 3.0%
remaining at 3 h, 2000 ng/mL ([4]; male, Sprague-Dawley, rat, tissue homogenate, 2000 ng/mL, incubation for 3 hr, read-out: Pecentage of remained): ~21%
cellular uptake (HEK293 cells): low cellular concentration
cellular concentration compared to P3V8 (HEK293 cells; 500 nM and 1 μM treatment): higher cellular concentration

Ac-DGKSKGIAYIEFK-NH2 [P3V8]
Pecentage of remained [1, 8]: 20.7% and 20.7 ± 3.3%
Pecentage of remained [1, 7]: almost completely degraded
remaining at 1 h, 2000 ng/mL ([1]; male, Sprague-Dawley, rat, rat plasma, 2000 ng/mL, incubation for 1 hr, read-out: Pecentage of remained): 21%
Kd (MJDCAG27 RNA; ITC, 0.7 mM peptide into 0.5 μM MJDCAG27 RNA, mean ± S.E.M.): 2.19 ± 0.27 µM
lower affinity than for expanded CAG RNA (MJDCAG27 RNA; unexpanded RNA vs expanded MJDCAG78 RNA): 6-9 fold
effect on expanded CAG RNA-induced cytotoxicity [3]: effectively alleviate the cytotoxicity
effect on expanded CAG RNA-induced cell death ([3]; peptide alone, without DeliverX): did not exert any cellular effect
Pecentage of remained [4, 5]: 4.0 ± 1.6%
Pecentage of remained [4, 8]: 3.3%
Pecentage of remained [4, 6]: 3.3 ± 0.6%
Pecentage of remained [4, 7]: almost completely degraded
remaining at 1 h, 2000 ng/mL ([4]; male, Sprague-Dawley, rat, rat brain homogenate, 2000 ng/mL, incubation for 1 hr, read-out: Pecentage of remained): 3%
cellular uptake (HEK293 cells): no uptake
